Laboratory results: PMC3792137, “NMK-TD-100, a Novel Microtubule Modulating Agent, Blocks Mitosis and Induces Apoptosis in HeLa Cells by Binding to Tubulin” (PLoS ONE, 2013)

Biological target: T1, tubulin (alpha/beta heterodimer)
T1 construct: tubulin purified from goat brain; with alpha-tubulin/beta-tubulin heterodimer
Assay: Ligand fluorescence enhancement titration (Scatchard, Job plot […]); tryptophan quenching gave Kd […]; polymerization IC50 […]
Type: binding, Capra hircus

Kd: 1260 ± 320 nM
Structure (SMILES): COc1cc(-c2nnc(-c3c[nH]c4ccccc34)s2)cc(OC)c1OC [NMK-TD-100]
